Data on 10 compounds can be found in article PMC4549708, “Inhibition of neuraminidase by Ganoderma triterpenoids and implications for neuraminidase inhibitor design” (Scientific Reports, 2015).

Data set [1] has as its target NA (H1N1,09) (Influenza A virus, UniProt C3W5S3). The data set is described as follows: biochemical. Conditions: for inhibition at 200 µM: 200 μM of each compound, n = 3, means ± standard deviation, read-out: Inhibition rate (%) NA(H1N1,09).
Data set [2] has as its target NA (H5N1) (Influenza A virus, UniProt K0C216). The data set can be described thus: biochemical. Conditions: read-out: Inhibition rate (%) NA (H5N1).
The test system of data set [3] is NA (H7N9). The data set is classed as biochemical. As to conditions: 200 µM.
Data set [4] in a line: in vitro. Conditions: human.

Molecules are shown by their SMILES.

By inhibition is commonly meant the share of the control response that was lost under treatment. Turning to `CC(CC(=O)C[C@@H](C)[C@H]1CC(=O)[C@@]2(C)C3=C(C(=O)C[C@]12C)[C@@]1(C)CC[C@H](O)C(C)(C)[C@@H]1CC3=O)C(=O)O` (stereo partly shown) [Compound 10, Ganoderic acid AM1], the values for the inhibition at 200 µM in data set [1] and in data set [2] were 28.3 ± 6.2% and 75.2 ± 2.3%, respectively. For the same compound, in data set [3], the “Inhibition rate (%) NA(H7N9)” value is on record as 14.1 ± 5.1%. This compound also displayed a CC50 in data set [4] greater than 200 µM.

As for `CC(=O)O[C@@H]1C(=O)C2=C([C@@H](O)C[C@H]3C(C)(C)[C@@H](O)CC[C@]23C)[C@]2(C)C(=O)C[C@H]([C@H](C)CC(=O)CC(C)C(=O)O)[C@@]12C` (stereo partly shown) [Compound 11, Ganoderic acid K], the inhibition at 200 µM is 28.8 ± 2% in data set [1] and 57.7 ± 10.9% in data set [2]. In data set [3], the “Inhibition rate (%) NA(H7N9)” value is reported as 28.5 ± 1.9%. The CC50 in data set [4] is greater than 200 µM.

`C/C(=C\CC[C@@H](C)[C@H]1CC[C@@]2(C)C3=CC[C@H]4C(C)(C)[C@@H](O)CC[C@]4(C)C3=CC[C@]12C)C(=O)O` [Compound 6, Ganoderic acid Y]: the figures for the inhibition at 200 µM in data set [1] and in data set [2] were 63 ± 2.5% and 78.2 ± 3.2%, respectively. Besides, the “Inhibition rate (%) NA(H7N9)” value in data set [3] is recorded as 17.8 ± 1.5%. The same compound registered a CC50 in data set [4] of 18 ± 1.3 µM.

Regarding `CC(CC(=O)C[C@@H](C)[C@H]1CC(=O)[C@@]2(C)C3=C(C(=O)C[C@]12C)[C@@]1(C)CC[C@H](O)C(C)(C)[C@@H]1C[C@@H]3O)C(=O)O` (stereo partly shown) [Compound 14, Ganoderic acid B], the inhibition at 200 µM was 6.9 ± 6.8% in data set [1] and 3 ± 1% in data set [2]. The “Inhibition rate (%) NA(H7N9)” value in data set [3] turned out to be 5.5 ± 0.4%. The compound also returned a CC50 in data set [4] greater than 200 µM.

As a reminder, the IC50 is the point on the concentration scale where inhibition reaches its midpoint. For the compound `C/C(=C/CC[C@@H](C)[C@H]1CC[C@@]2(C)C3=CC[C@H]4C(C)(C)C(=O)CC[C@]4(C)C3=CC[C@]12C)C(=O)O` [Compound 5, Ganoderic acid S], the inhibition at 200 µM in data set [1] was determined as 69.4 ± 2.3%; in data set [2] it was 86.7 ± 0.5%. The compound further came in with an IC50 in data set [1] (in vitro NA inhibition assay (n = 3)) of 80.5 ± 24.9 µM. The “Inhibition rate (%) NA(H7N9)” value in data set [3] was 31.9 ± 2.3%. Also, the CC50 in data set [4] worked out at 80.9 ± 6.8 µM.

Turning to `CC(CC(=O)C[C@@H](C)[C@H]1CC(=O)[C@@]2(C)C3=C(C(=O)[C@@H](O)[C@]12C)[C@@]1(C)CC[C@H](O)C(C)(C)[C@@H]1CC3=O)C(=O)O` (stereo partly shown) [Compound 18, Ganoderic acid C6], the results for the inhibition at 200 µM in data set [1] and in data set [2] were 17.8 ± 1.2% and 15.6 ± 22.3%, respectively. Further, the “Inhibition rate (%) NA(H7N9)” value in data set [3] worked out at 25.7 ± 1.3%. Further, the CC50 in data set [4] is greater than 200 µM.

For the compound `C/C(=C\C(=O)CC(C)C(=O)O)[C@H]1CC(=O)[C@@]2(C)C3=C(C(=O)C[C@]12C)[C@@]1(C)CC[C@H](O)C(C)(C)[C@@H]1CC3=O` (stereo partly shown) [Compound 12, Ganoderenic acid H], the inhibition at 200 µM in data set [1] stood at 58 ± 3%; in data set [2], 77.7 ± 3.9%. For the same compound, in data set [3], the “Inhibition rate (%) NA(H7N9)” value is listed as 38.6 ± 6.2%. In data set [4], this compound registered a CC50 greater than 200 µM.

Take `C/C(=C\C(=O)CC(C)C(=O)O)[C@H]1CC(=O)[C@@]2(C)C3=C(C(=O)C[C@]12C)[C@@]1(C)CCC(=O)C(C)(C)[C@@H]1CC3=O` (stereo partly shown) [Compound 15, Ganoderenic acid F]: the inhibition at 200 µM in data set [1] worked out at 53.1 ± 1.6%; in data set [2], 62.8 ± 4%. Also, the “Inhibition rate (%) NA(H7N9)” value in data set [3] came out at 34.2 ± 4.7%. In data set [4], the CC50 is 111 ± 17.9 µM.

As to `C/C(=C\CC[C@@H](C)[C@H]1CC[C@@]2(C)C3=CC[C@H]4C(C)(C)C(=O)CC[C@]4(C)C3=CC[C@]12C)CO` [Compound 25, Ganoderol A], the inhibition at 200 µM in data set [1] amounted to 48.3 ± 2.2%; in data set [2], 77.1 ± 0.4%. Besides, the “Inhibition rate (%) NA(H7N9)” value in data set [3] was 15.9 ± 3.7%. Besides, in data set [4], the CC50 worked out at 20.4 ± 0.9 µM.

Regarding `C[C@H](CC[C@H](O)C(C)(C)O)[C@H]1CC[C@@]2(C)C3=CC[C@H]4C(C)(C)C(=O)CC[C@]4(C)C3=CC[C@]12C` [Compound 28, Ganodermanondiol], the inhibition at 200 µM in data set [2] came out at 87.9 ± 1.8%. Further, in data set [3], the “Inhibition rate (%) NA(H7N9)” value was 24.3 ± 1.7%. Besides, the CC50 in data set [4] is 64.9 ± 10 µM.
